Results taken from patent US6221865A, “Inhibitors of protein isoprenyl transferases” (priority 1998, dated 2001).
Counter-ions that a name gives are not always drawn.

Each compound was assayed against T1, protein farnesyltransferase (Rattus norvegicus, UniProt Q02293+Q04631) (assay: Inhibition of farnesyltransferase (scintillation proximity assay, rat brain enzyme, biotin-K Ras B fragment substrate)). Conditions: 1 × 10^-5 M (Table 1).
T1 construct: The enzyme is purified according to Reiss, Y., et al., Cell, 62: 81-88 (1990), utilizing steps one through three; from tissue; host or cells: rat brain
T1 sequence (Q02293 whole entry, the tested form may be a part, one chain of several): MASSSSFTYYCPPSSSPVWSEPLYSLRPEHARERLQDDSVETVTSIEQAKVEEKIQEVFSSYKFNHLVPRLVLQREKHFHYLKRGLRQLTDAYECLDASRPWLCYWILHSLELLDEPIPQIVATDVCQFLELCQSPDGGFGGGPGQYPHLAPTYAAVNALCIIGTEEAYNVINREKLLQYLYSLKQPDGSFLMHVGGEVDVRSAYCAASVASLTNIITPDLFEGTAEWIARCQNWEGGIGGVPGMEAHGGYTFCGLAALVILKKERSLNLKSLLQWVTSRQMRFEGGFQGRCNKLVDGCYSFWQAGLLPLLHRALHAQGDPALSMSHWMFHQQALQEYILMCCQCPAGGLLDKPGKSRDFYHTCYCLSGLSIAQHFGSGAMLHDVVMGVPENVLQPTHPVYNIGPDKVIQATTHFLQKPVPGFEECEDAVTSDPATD
Type: biochemical
Method in brief: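 Enzyme from rat brain, partly purified (steps one to three), assayed by SPA kit using 0.1 mM final biotin-K Ras B peptide as prenyl acceptor rather than biotin-lamin. Activity given as percent inhibition.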
With CSCC[C@H](NC(=O)c1ccc(CNCCCCc2ccccc2)cc1-c1ccccc1)C(=O)O [Example 718] the “% inhibition of farnesyltransferase at 1 × 10^-5 M” value (“% inhibition … at 1 × 10^-5 M” below) was 40%.
CSCC[C@H](NC(=O)c1ccc(CNc2cccc(N(C)C)c2)cc1-c1ccccc1)C(=O)O [Example 683] was tested, and the “% inhibition … at 1 × 10^-5 M” value was 57%.
CSCC[C@H](NC(=O)c1ccc(CNC(CO)Cc2ccccc2)cc1-c1ccccc1)C(=O)O (stereo partly shown) [Example 714] was tested, and the “% inhibition … at 1 × 10^-5 M” value was 56%.
For CSCC[C@H](NC(=O)c1ccc(CNc2nccs2)cc1-c1ccccc1)C(=O)O [Example 374], the “% inhibition … at 1 × 10^-5 M” value was 61%.

Same assay, conditions: 1 × 10^-6 M (Table 2)
CSCC[C@H](NC(=O)c1ccc(CN(CCc2ccccc2)c2ccccc2)cc1-c1ccccc1C)C(=O)O [Example 507] was tested, and the “% inhibition of farnesyltransferase at 1 × 10^-6 M” value (“% inhibition … at 1 × 10^-6 M” for short) was 96%.
For CCc1nnc(NCc2ccc(C(=O)N[C@@H](CCSC)C(=O)O)c(-c3ccccc3C)c2)s1 [Example 723], the “% inhibition … at 1 × 10^-6 M” value was 87%.
With COc1cccc(CNCc2ccc(C(=O)N[C@@H](CCSC)C(=O)O)c(-c3ccccc3)c2)c1 [Example 652] the “% inhibition … at 1 × 10^-6 M” value was 41%.
With COC(=O)[C@H](CCSC)NC(=O)c1ccc(NC(=O)[C@@H]2CSCN2)cc1-c1ccccc1.Cl [Example 164] the “% inhibition … at 1 × 10^-6 M” value was 92%.
In the case of CSCC[C@H](NC(=O)c1cc(Cc2ccccc2)c(COCc2ccccc2)cc1-c1ccccc1C)C(=O)O [Example 923], the “% inhibition … at 1 × 10^-6 M” value is reported as 78%.
With CSCC[C@H](NC(=O)c1ccc(CNc2ccc(OC(F)(F)F)cc2)cc1-c1ccccc1)C(=O)O [Example 691] the “% inhibition … at 1 × 10^-6 M” value was 34%.
Cc1ccccc1-c1cc(COCc2ccccc2)ccc1C(=O)N[C@@H](CCS(C)(=O)=O)C(=O)O [Example 576] was tested, and the “% inhibition … at 1 × 10^-6 M” value was 88%.
CSCC[C@H](NC(=O)c1ccc(CNCCC2CCCCC2)cc1-c1ccccc1C)C(=O)O.O=C(O)C(F)(F)F [Example 607] was tested, and the “% inhibition … at 1 × 10^-6 M” value was 96%.
With CSCC[C@H](NC(=O)c1ccc(COCc2ccccc2C)cc1-c1ccccc1C)C(=O)[O-].[Li+] [Example 577] the “% inhibition … at 1 × 10^-6 M” value was 94%.
In the case of CSCC[C@H](NC(=O)c1ccc(CN(Cc2ccco2)C(C)C)cc1-c1ccccc1C)C(=O)O [Example 831], the “% inhibition … at 1 × 10^-6 M” value is reported as 92%.
With CSCC[C@H](NC(=O)c1ccc(COCc2ccc(-c3ccc(F)cc3)o2)cc1-c1cccc2ccccc12)C(=O)[O-].[Li+] [Example 868] the “% inhibition … at 1 × 10^-6 M” value was 89%.
For CSCC[C@H](NC(=O)c1ccc(CN(Cc2ccccc2)c2ccccc2)cc1-c1ccccc1C)C(=O)O [Example 406], the “% inhibition … at 1 × 10^-6 M” value was 95%.
In the case of COc1ccccc1CCC(=O)Nc1ccc(C(=O)N[C@@H](CCSC)C(=O)O)c(-c2ccccc2C)c1 [Example 544], the “% inhibition … at 1 × 10^-6 M” value is reported as 35%.
CSCC[C@H](NC(=O)c1ccc(CN(Cc2ccccc2)Cc2cccc(Oc3ccccc3)c2)cc1-c1ccccc1C)C(=O)O [Example 514] was tested, and the “% inhibition … at 1 × 10^-6 M” value was 94%.
With CSCC[C@H](NC(=O)c1ccc(NCC(CO)Cc2ccccc2)cc1-c1ccccc1C)C(=O)O (stereo partly shown) [Example 476] the “% inhibition … at 1 × 10^-6 M” value was 91%.

Same assay, conditions: 1 × 10^-7 M (Table 3)
CSCC[C@H](NC(=O)c1ccc(CSC2=NCCS2)cc1-c1ccccc1C)C(=O)O [Example 730] was tested, and the “% inhibition of farnesyltransferase at 1 × 10^-7 M” value (“% inhibition … at 1 × 10^-7 M” below) was 96%.
For CCSC[C@H](CC(C)C)N(C)Cc1ccc(C(=O)N[C@@H](CCSC)C(=O)O)c(-c2ccccc2C)c1 [Example 906], the “% inhibition … at 1 × 10^-7 M” value was 88%.
For CSCC[C@H](NC(=O)c1ccc(CN[C@H](CO)C2CCCCC2)cc1-c1ccccc1C)C(=O)O [Example 520], the “% inhibition … at 1 × 10^-7 M” value was 97%.
CSCC[C@H](NC(=O)c1ccc(COC(Cc2ccccc2)c2ccco2)cc1-c1ccccc1C)C(=O)[O-].[Li+] (stereo partly shown) [Example 534] was tested, and the “% inhibition … at 1 × 10^-7 M” value was 84%.
For CSCC[C@H](NC(=O)c1ccc(COCc2ccc(-c3ccc(C=O)cc3)o2)cc1-c1ccccc1C)C(=O)[O-].[Li+] [Example 448], the “% inhibition … at 1 × 10^-7 M” value was 92%.
COc1ccc(COCc2ccc(C(=O)N[C@@H](CCSC)C(=O)[O-])c(-c3ccccc3C)c2)cc1.[Li+] [Example 935] was tested, and the “% inhibition … at 1 × 10^-7 M” value was 72%.
CSCC[C@H](NC(=O)c1ccc(COCc2ccc(-c3cccc(F)c3)o2)cc1-c1ccccc1C)C(=O)[O-].[Li+] [Example 436] was tested, and the “% inhibition … at 1 × 10^-7 M” value was 89%.
In the case of CSCC[C@H](NC(=O)c1ccc(COCc2ccc(-c3ccc(C(C)=O)cc3)o2)cc1-c1ccccc1C)C(=O)[O-].[Li+] [Example 449], the “% inhibition … at 1 × 10^-7 M” value is reported as 91%.
CSCC[C@H](NC(=O)c1ccc(COCc2ccc(C)o2)cc1-c1ccccc1C)C(=O)O [Example 532] was tested, and the “% inhibition … at 1 × 10^-7 M” value was 88%.
In the case of CSCC[C@H](NC(=O)c1ccc(CN(CCC2CCCCC2)S(C)(=O)=O)cc1-c1ccccc1C)C(=O)O [Example 611], the “% inhibition … at 1 × 10^-7 M” value is reported as 95%.
For CSCC[C@H](NC(=O)c1ccc(CSc2ncnc3[nH]cnc23)cc1-c1ccccc1C)C(=O)O [Example 747], the “% inhibition … at 1 × 10^-7 M” value was 68%.
CSCC[C@H](NC(=O)c1ccc(COc2ccc(Oc3ccccc3)cc2)cc1-c1ccccc1C)C(=O)[O-].[Li+] [Example 795] was tested, and the “% inhibition … at 1 × 10^-7 M” value was 87%.
CSCC[C@H](NC(=O)c1ccc(COCCc2ccc3ccccc3c2)cc1-c1ccccc1C)C(=O)[O-].[Li+] [Example 593] was tested, and the “% inhibition … at 1 × 10^-7 M” value was 86%.

Same assay, conditions: 1 × 10^-8 M (Table 4)
In the case of CSCC[C@H](NC(=O)c1ccc(CO[C@H](CSC)CC2CCCCC2)cc1-c1ccccc1C)C(=O)O [Example 882], the “% inhibition of farnesyltransferase at 1 × 10^-8 M” value (shortened to “% inhibition … at 1 × 10^-8 M”) is reported as 79%.
With CSCC[C@H](NC(=O)c1ccc(CN(CCC2CCCCC2)S(=O)(=O)c2ccccc2)cc1-c1ccccc1C)C(=O)O [Example 612] the “% inhibition … at 1 × 10^-8 M” value was 96%.
CSCC[C@H](NC(=O)c1ccc(CO[C@H](CSC(C)(C)C)Cc2ccccc2)cc1-c1ccccc1C)C(=O)O [Example 994] was tested, and the “% inhibition … at 1 × 10^-8 M” value was 83%.
With CSCC[C@H](NC(=O)c1ccc(COCc2ccccc2C(C)C)cc1-c1ccccc1C)C(=O)[O-].[Li+] [Example 938] the “% inhibition … at 1 × 10^-8 M” value was 61%.
With CSCC[C@H](NC(=O)c1ccc(CN(Cc2ccc3c(c2)OCO3)c2cnccn2)cc1-c1ccccc1C)C(=O)O [Example 838] the “% inhibition … at 1 × 10^-8 M” value was 92%.
In the case of CSCC[C@H](NC(=O)c1ccc(CN(Cc2ccc3c(c2)OCO3)c2cncnc2)cc1-c1ccccc1C)C(=O)O [Example 837], the “% inhibition … at 1 × 10^-8 M” value is reported as 91%.
With CSCC[C@H](NC(=O)c1ccc(COCCc2ccccc2Cl)cc1-c1ccccc1C)C(=O)[O-].[Li+] [Example 588] the “% inhibition … at 1 × 10^-8 M” value was 68%.

Same assay, conditions: Table 6, * = 0.1 μM (footnote); title prints 0.1 mM
In the case of CCCCC(OCc1ccc(C(=O)N[C@@H](CCSC)C(=O)[O-])c(-c2ccccc2C)c1)C1CCNCC1.[Li+] (stereo partly shown) [Example 1288], the “% inhibition at 0.1 μM (*)” value is reported as 69%.
With CCC(=O)N(CCCc1ccc(C(=O)N[C@@H](CCSC)C(=O)O)c(-c2ccccc2C)c1)C1CCCCC1 [Example 1145] the “% inhibition at 0.1 μM (*)” value was 83%.

Same assay, conditions: read-out: % inhibition at 0.01 μM (**); Table 6, ** = 0.01 μM (footnote); title prints 0.01 mM
CSCC[C@H](NC(=O)c1ccc(CN2CCOC[C@@H]2COCC2CCCCC2)cc1-c1ccccc1C)C(=O)O [Example 1109, N-[4-(3(S)-cyclohexylmethoxymethylmorpholin-4-ylmethyl)-2-(2-methylphenyl)benzoyl]methionine] showed an inhibition at 0.01 µM of 74%.
With CCCCP(=O)(Cc1ccc(C(=O)N[C@@H](CCSC)C(=O)O)c(-c2ccccc2C)c1)CC1CCCCC1 (stereo partly shown) [Example 1213, N-[4-((Cylohexylmethyl)butyl(oxophosphinyl)methyl)-2-(2-methylphenyl)benzoyl]methionine] the inhibition at 0.01 µM was 79%.

Same assay, conditions: read-out: % inhibition at 0.1 μM (*); Table 6, * = 0.1 μM (footnote); title prints 0.1 mM
In the case of CCCCN(Cc1cc(F)cc(F)c1)OCc1ccc(C(=O)N[C@@H](CCSC)C(=O)O)c(-c2ccccc2C)c1 [Example 1176, N-[4-N-Butyl-N-(3,5-difluorobenzyl)aminooxymethyl-2-(2-methylphenyl)benzoyl]methionine lithium salt], the inhibition at 0.1 µM is reported as 97%.

Same assay, conditions: read-out: % inhibition of farnesyltransferase at 1 × 10^-6 M; 1 × 10^-6 M (Table 2)
Compound CSCC[C@H](NC(=O)c1ccc(S(=O)(=O)NCCC2CCCCC2)cc1-c1ccccc1C)C(=O)O [Example 772, lithium salt] has an inhibition at 1 µM of 79%.
With CSCC[C@H](NC(=O)c1ccc(/C=C/c2ccc3ccccc3c2)cc1-c1ccccc1C)C(=O)O [Example 465, N-[4-(2-naphth-2-ylethenyl)-2-(2-methylphenyl)benzoyl]methionine] the inhibition at 1 µM was 92%.
In the case of CSCC[C@H](NC(=O)c1ccc(CN2CCNCC2)cc1-c1ccccc1)C(=O)O [Example 290, (4-piperazinylmethyl-2-phenylbenzoyl)methionine], the inhibition at 1 µM is reported as 74%.
With CSCC[C@H](NC(=O)c1ccc(CN(C2CC2)C(C)(C)Cc2ccccc2)cc1-c1ccccc1C)C(=O)O [Example 315] the inhibition at 1 µM was 93%.
CCCCN(C)N(CCC1CCCCC1)Cc1ccc(C(=O)N[C@@H](CCS(C)(=O)=O)C(=O)O)c(-c2ccccc2C)c1 [Example 300] was tested, and the inhibition at 1 µM was 22%.
CSCC[C@H](NC(=O)c1ccc(CN(C2CC2)C2(Cc3ccccc3)CCC2)cc1-c1ccccc1C)C(=O)O [Example 329] was tested, and the inhibition at 1 µM was 98%.

Same assay, conditions: read-out: % inhibition of farnesyltransferase at 1 × 10^-7 M; 1 × 10^-7 M (Table 3)
CSCC[C@H](NC(=O)c1ccc(C#Cc2cncnc2)cc1-c1ccccc1C)C(=O)O [Example 493, N-[4-(2-pyrimidin-5-ylethynyl)-2-(2-methylphenyl)benzoyl]methionine lithium salt] gave an inhibition at 0.1 µM of 51%.

Same assay, conditions: read-out: % inhibition of farnesyltransferase at 1 × 10^-8 M; 1 × 10^-8 M (Table 4)
With CSCC[C@H](NC(=O)c1ccc(CON=C(Cc2ccccc2)Cc2ccccc2)cc1-c1ccccc1C)C(=O)O [Example 888, N-[4-N-(1,3-Diphenylpropan-2-yl)iminooxymethyl-2-(2-methylphenyl)benzoyl]-methionine lithium salt] the inhibition at 0.01 µM was 86%.
